ChEMBL document CHEMBL4665632, “Design, synthesis and biological evaluation of pyridone-aminal derivatives as MNK1/2 inhibitors” (Bioorg Med Chem, 2019)

Tests used:
[1] = biological target: T1, MAP kinase-interacting serine/threonine-protein kinase 1 (Homo sapiens, UniProt Q9BUB5); test: Inhibition of recombinant human N-terminal DYKDDDDK-tagged MNK1(1 to 424 residues) expressed in baculovirus expression system using TATKSGSTTKNR as substrate preincubated for 10 mins followed by ATP addition and measured after 40 mins by luminescence based assay
Target sequence in this assay (Q9BUB5 whole entry, the tested form may be a part): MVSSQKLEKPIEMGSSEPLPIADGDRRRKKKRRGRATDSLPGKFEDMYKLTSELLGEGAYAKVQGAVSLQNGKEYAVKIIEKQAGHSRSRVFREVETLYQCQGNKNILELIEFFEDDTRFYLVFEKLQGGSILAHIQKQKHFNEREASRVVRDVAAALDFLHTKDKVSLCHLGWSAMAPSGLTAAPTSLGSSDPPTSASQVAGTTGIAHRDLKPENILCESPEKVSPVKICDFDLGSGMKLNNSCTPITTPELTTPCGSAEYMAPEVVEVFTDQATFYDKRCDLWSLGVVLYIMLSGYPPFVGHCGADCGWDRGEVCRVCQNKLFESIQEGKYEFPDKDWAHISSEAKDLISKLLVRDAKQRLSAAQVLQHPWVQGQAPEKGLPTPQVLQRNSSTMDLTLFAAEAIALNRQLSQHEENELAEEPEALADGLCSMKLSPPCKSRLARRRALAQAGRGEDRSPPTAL

[2] = biological target: T2, MAP kinase-interacting serine/threonine-protein kinase 2 (Homo sapiens, UniProt Q9HBH9); test: Inhibition of MNK2 (unknown origin) at 100 nM incubated for 60 mins by HTRF assay
Target sequence in this assay (Q9HBH9 whole entry, looked up): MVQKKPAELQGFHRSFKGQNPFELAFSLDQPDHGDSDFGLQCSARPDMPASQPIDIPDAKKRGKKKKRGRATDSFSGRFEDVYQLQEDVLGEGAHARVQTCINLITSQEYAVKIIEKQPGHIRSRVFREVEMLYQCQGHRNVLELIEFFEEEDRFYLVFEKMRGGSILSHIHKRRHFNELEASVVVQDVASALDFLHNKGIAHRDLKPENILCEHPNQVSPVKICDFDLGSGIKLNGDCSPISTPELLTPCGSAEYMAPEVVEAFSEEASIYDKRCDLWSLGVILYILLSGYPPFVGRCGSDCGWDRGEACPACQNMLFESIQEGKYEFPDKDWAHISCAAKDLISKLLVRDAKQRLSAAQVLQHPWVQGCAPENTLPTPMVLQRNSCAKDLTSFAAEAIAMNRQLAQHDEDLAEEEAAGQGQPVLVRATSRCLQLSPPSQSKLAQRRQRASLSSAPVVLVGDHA

[3] = biological target: T1, MAP kinase-interacting serine/threonine-protein kinase 1; test: Inhibition of MNK1 (unknown origin) at 100 nM incubated for 60 mins by HTRF assay
Target sequence in this assay (Q9BUB5 whole entry, looked up, the tested form may be a part): as the sequence (Q9BUB5 whole entry, the tested form may be a part) above

[4] = biological target: T2, MAP kinase-interacting serine/threonine-protein kinase 2; test: Inhibition of recombinant human N-terminal GST-tagged MNK2 (1 to 465 residues) expressed in baculovirus expression system using TATKSGSTTKNR as substrate preincubated for 10 mins followed by ATP addition and measured after 40 mins by luminescence based assay
Target sequence in this assay (Q9HBH9 whole entry): as the sequence (Q9HBH9 whole entry, looked up) above

TMD8 = test: Antiproliferative activity against human TMD8 cells assessed as reduction in cell viability incubated for 72 hrs by MTT assay; type: functional, cell-based; settings: TMD8, 72 h
[5] = Antiproliferative activity against […] cells assessed as reduction in cell viability at 20 uM incubated for 72 hrs by MTT assay relative to control; type: functional, Mus musculus
A549 = test: Antiproliferative activity against human A549 cells assessed as reduction in cell viability incubated at 20 uM for 72 hrs by MTT assay relative to control; type: functional
MV4-11 = test: Antiproliferative activity against human MV4-11 cells assessed as reduction in cell viability incubated for 72 hrs by MTT assay; type: functional, cell-based; settings: MV4-11, 72 h
HCT-116 = test: Antiproliferative activity against human HCT-116 cells assessed as reduction in cell viability at 20 uM incubated for 72 hrs by MTT assay relative to control; type: functional
MDA-MB-435 = test: Antiproliferative activity against human MDA-MB-435 cells assessed as reduction in cell viability at 20 uM incubated for 72 hrs by MTT assay relative to control; type: functional
K562 = test: Antiproliferative activity against human K562 cells assessed as reduction in cell viability incubated for 72 hrs by MTT assay; type: functional, cell-based; settings: K562, 72 h

| Compound | IC50 [1] [nM] | inhibition [2] [%] | inhibition [3] [%] | IC50 [4] [nM] | IC50 (MV4-11) [nM] | IC50 (K562) [nM] | IC50 (TMD8) [nM] | inhibition at 20 µM [5] [%] | inhibition at 20 µM (A549) [%] | inhibition at 20 µM (HCT-116) [%] | inhibition at 20 µM (MDA-MB-435) [%] |
| --- | --- | --- | --- | --- | --- | --- | --- | --- | --- | --- | --- |
| Cc1cc(Nc2cc(N3CCCCC3)ncn2)c(=O)n2c1C(=O)NC21CCCCC1 | 476 | 50.3 | 37.5 | 452 | – | – | – | – | – | – | – |
| Cc1cccc(Nc2cc(C)c3n(c2=O)C2(CCCCC2)NC3=O)n1 | > 500 | 13.4 | 19.8 | > 500 | – | – | – | – | – | – | – |
| Cc1cc(Nc2cc(N3CCN(C)CC3)ncn2)c(=O)n2c1C(=O)NC21CCCCC1 | 51.2 | 66.8 | 54.4 | 42.1 | > 20000 | 17900 | 4810 | 38.8 | 39 | 65.2 | 44.3 |
| Cc1cccnc1Nc1cc(C)c2n(c1=O)C1(CCCCC1)NC2=O | > 500 | 23 | 17.8 | > 500 | – | – | – | – | – | – | – |
| Cc1cc(Nc2cncc(N)n2)c(=O)n2c1C(=O)NC21CCCCC1 | > 500 | 33.2 | 25.3 | > 500 | – | – | – | – | – | – | – |
| Cc1cc(Nc2cc(NC3CCNCC3)ncn2)c(=O)n2c1C(=O)NC21CCCCC1 | 55.2 | 75.8 | 66.4 | 49.8 | 18500 | > 20000 | 11000 | 18.5 | 43.9 | 35.2 | 59.2 |
| Cc1cc(Nc2cn(C)nc2N)c(=O)n2c1C(=O)NC21CCCCC1 | 479 | 55.4 | 53.2 | 389 | – | – | – | – | – | – | – |
| CC(=O)N1CCN(c2cc(Nc3cc(C)c4n(c3=O)C3(CCCCC3)NC4=O)ncn2)CC1 | 68.9 | 86.9 | 73.3 | 63.8 | > 20000 | > 20000 | 8330 | 46.7 | 28.8 | 28.9 | 16 |

Further lines, with some results ahead:

| IC50 [1] [nM] | inhibition [2] [%] | inhibition [3] [%] | IC50 [4] [nM] | IC50 (MV4-11) [nM] | IC50 (K562) [nM] | Compound | IC50 (TMD8) [nM] | inhibition at 20 µM [5] [%] | inhibition at 20 µM (A549) [%] | inhibition at 20 µM (HCT-116) [%] | inhibition at 20 µM (MDA-MB-435) [%] |
| --- | --- | --- | --- | --- | --- | --- | --- | --- | --- | --- | --- |
| 390 | 66.3 | 52.7 | 228 | > 20000 | > 20000 | Cc1cc(Nc2ccnc(N)n2)c(=O)n2c1C(=O)NC21CCCCC1 | > 20000 | 35 | 22.6 | 30.7 | 25.8 |
| 52.3 | 70.5 | 72.5 | 48.2 | > 20000 | > 20000 | Cc1cc(Nc2ccnc(N)c2)c(=O)n2c1C(=O)NC21CCCCC1 | 11200 | 30.1 | 21.5 | 42.2 | 37.7 |
| > 500 | 23.9 | 25.9 | > 500 | – | – | Cc1cc(Nc2cccnn2)c(=O)n2c1C(=O)NC21CCCCC1 | – | – | – | – | – |
| > 500 | 16.2 | 19.5 | > 500 | – | – | Cc1cc(Nc2ccccn2)c(=O)n2c1C(=O)NC21CCCCC1 | – | – | – | – | – |
| > 500 | 30.8 | 43.4 | > 500 | – | – | Cc1cc(Nc2cc(N)ccn2)c(=O)n2c1C(=O)NC21CCCCC1 | – | – | – | – | – |
| 422 | 45.2 | 26.8 | 398 | – | – | Cc1cc(Nc2cc(C)c3n(c2=O)C2(CCCCC2)NC3=O)ccn1 | – | – | – | – | – |
